Source: ChEMBL document CHEMBL1909046, “DrugMatrix in vitro pharmacology data”

Assays:
[1] = molecular target: T1, Muscarinic acetylcholine receptor M5 (Homo sapiens, UniProt P08912); format: cell membranes, CHO-K1, Membrane; also: in other assays of this panel Not Active means under 50% inhibition at 10 µM
T1 sequence (P08912 whole entry): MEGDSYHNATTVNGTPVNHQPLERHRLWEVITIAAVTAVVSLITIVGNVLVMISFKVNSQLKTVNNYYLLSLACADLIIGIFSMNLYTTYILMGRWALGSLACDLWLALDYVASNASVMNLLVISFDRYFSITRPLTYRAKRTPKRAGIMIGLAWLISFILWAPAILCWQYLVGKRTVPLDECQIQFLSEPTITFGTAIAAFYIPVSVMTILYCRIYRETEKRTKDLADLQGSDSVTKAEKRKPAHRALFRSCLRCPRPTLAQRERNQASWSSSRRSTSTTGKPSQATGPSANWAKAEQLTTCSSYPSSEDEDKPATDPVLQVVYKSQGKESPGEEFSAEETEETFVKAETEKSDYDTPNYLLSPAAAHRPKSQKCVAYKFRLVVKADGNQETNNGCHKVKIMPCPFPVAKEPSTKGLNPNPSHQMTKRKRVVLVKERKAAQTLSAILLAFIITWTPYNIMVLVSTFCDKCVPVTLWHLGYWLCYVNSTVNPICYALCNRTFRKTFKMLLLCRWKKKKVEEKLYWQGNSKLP

[2] = DRUGMATRIX: Tumor Necrosis Factor (TNF), Non-Selective radioligand binding (ligand: [125I] TNF-alpha); format: cell membranes, Membrane; settings: u-937; Not Active = under 50% inhibition at 10 µM
[3] = DRUGMATRIX: Interleukin IL-1 radioligand binding (ligand: [125I] interleukin 1beta); format: cell membranes, Membrane; settings: nih3t3; Not Active = under 50% inhibition at 10 µM
[4] = molecular target: T2, Substance-K receptor (Homo sapiens, UniProt P21452); format: cell membranes, CHO, Membrane; settings: cho; also: in other assays of this panel Not Active means under 50% inhibition at 10 µM
T2 sequence (P21452 whole entry): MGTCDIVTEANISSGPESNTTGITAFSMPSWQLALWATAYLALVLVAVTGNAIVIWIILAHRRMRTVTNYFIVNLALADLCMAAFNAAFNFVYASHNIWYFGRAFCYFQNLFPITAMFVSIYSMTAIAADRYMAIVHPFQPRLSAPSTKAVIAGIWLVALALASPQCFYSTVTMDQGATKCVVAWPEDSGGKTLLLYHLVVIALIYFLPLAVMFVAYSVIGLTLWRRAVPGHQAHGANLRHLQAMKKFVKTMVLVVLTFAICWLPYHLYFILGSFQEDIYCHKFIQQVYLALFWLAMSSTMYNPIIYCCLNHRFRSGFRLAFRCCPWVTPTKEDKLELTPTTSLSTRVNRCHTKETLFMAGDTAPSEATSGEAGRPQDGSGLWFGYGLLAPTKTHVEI

[5] = molecular target: T3, Glucocorticoid receptor (Homo sapiens, UniProt P04150); settings: hela s3; also: in other assays of this panel Not Active means under 50% inhibition at 10 µM
T3 sequence (P04150 whole entry): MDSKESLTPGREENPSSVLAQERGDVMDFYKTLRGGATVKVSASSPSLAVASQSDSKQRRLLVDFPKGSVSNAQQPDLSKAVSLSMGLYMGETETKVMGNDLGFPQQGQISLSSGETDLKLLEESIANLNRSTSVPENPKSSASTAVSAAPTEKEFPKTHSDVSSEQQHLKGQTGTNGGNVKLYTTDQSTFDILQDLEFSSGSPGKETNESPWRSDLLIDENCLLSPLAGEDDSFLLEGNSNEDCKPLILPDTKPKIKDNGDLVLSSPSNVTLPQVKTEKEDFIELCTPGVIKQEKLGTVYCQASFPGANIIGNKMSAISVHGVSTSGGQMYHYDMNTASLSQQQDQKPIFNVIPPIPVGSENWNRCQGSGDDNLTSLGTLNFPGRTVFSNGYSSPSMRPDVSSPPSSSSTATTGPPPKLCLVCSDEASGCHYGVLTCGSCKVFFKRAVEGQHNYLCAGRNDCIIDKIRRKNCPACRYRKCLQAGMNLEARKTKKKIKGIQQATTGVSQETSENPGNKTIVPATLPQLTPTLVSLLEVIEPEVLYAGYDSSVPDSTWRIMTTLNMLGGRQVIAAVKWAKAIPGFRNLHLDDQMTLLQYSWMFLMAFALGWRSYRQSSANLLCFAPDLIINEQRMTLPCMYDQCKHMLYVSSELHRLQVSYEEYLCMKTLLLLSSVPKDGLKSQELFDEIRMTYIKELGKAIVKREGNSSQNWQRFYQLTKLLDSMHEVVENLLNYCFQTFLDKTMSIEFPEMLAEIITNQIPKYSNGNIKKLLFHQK

[6] = molecular target: T4, C-X-C chemokine receptor type 2 (Homo sapiens, UniProt P25025); format: cell membranes, Membrane; settings: cho-k1; also: in other assays of this panel Not Active means under 50% inhibition at 10 µM
T4 sequence (P25025 whole entry): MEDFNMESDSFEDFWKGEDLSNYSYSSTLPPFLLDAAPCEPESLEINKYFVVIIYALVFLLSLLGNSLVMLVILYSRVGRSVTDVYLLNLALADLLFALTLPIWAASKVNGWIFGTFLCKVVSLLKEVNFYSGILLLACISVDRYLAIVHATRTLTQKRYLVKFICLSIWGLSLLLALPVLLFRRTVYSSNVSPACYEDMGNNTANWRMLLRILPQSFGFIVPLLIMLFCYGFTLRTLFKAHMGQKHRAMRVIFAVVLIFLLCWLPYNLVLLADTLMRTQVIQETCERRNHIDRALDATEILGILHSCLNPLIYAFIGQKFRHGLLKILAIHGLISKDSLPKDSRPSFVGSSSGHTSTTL

[7] = molecular target: T5, Cytochrome P450 1A2 (Homo sapiens, UniProt P05177); settings: bti-tn-5b1-4; also: in other assays of this panel Not Active means under 50% inhibition at 10 µM
T5 sequence (P05177 whole entry): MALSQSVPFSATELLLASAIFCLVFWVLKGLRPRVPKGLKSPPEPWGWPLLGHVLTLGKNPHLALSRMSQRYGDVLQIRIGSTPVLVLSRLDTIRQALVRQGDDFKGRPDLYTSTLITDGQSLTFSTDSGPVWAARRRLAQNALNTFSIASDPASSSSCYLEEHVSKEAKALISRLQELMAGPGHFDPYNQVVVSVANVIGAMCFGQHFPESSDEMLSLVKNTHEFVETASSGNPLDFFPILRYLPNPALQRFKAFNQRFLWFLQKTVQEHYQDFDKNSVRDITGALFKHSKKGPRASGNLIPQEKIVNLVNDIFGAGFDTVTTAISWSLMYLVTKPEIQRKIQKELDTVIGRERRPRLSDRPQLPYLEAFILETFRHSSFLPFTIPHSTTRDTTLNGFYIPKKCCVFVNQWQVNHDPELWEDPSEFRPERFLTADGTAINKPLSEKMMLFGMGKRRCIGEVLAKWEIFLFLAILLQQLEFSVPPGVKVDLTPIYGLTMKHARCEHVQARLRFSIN

[8] = DRUGMATRIX: Platelet-Derived Growth Factor (PDGF) radioligand binding (ligand: [125I] PDGF); format: cell-based; settings: nih3t3; Not Active = under 50% inhibition at 10 µM

Compound | IC50 ([1]; cho-k1) | IC50 [2] | Ki [2] | IC50 [3] | Ki [3] | IC50 [4] | IC50 [5] | IC50 [6] | IC50 [7] | Ki [7] | IC50 [8] | Ki [8] | IC50 ([1]; read-out: IC50) [µM] | Ki ([1]; read-out: Ki) [µM]
CC1=C2C(=CO[C@H](C)[C@H]2C)C(O)=C(C(=O)O)C1=O [CITRININ] | Not Active | Not Active | Not Active | Not Active | Not Active | Not Active | Not Active | Not Active | Not Active | Not Active | Not Active | Not Active |  | 
Nc1nc2c(ncn2COCCO)c(=O)[nH]1 [ACYCLOVIR] | Not Active | Not Active | Not Active | Not Active | Not Active | Not Active | Not Active | Not Active | Not Active | Not Active | Not Active | Not Active |  | 
CCOC(=O)C1=C(COCCN)NC(C)=C(C(=O)OC)C1c1ccccc1Cl (stereo not given) [AMLODIPINE] | Not Active | Not Active | Not Active | Not Active | Not Active | Not Active | Not Active | Not Active | Not Active | Not Active | Not Active | Not Active |  | 
O=C1CC[C@@H](N2C(=O)c3ccccc3C2=O)C(=O)N1 | Not Active | Not Active | Not Active | Not Active | Not Active | Not Active | Not Active | Not Active | Not Active | Not Active | Not Active | Not Active |  | 
Cc1ccc(N(CC2=NCCN2)c2cccc(O)c2)cc1 [PHENTOLAMINE] | Not Active | Not Active | Not Active | Not Active | Not Active | Not Active | Not Active | Not Active | Not Active | Not Active | Not Active | Not Active |  | 
Cc1ccccc1N1C(=O)c2cc(S(N)(=O)=O)c(Cl)cc2NC1C (stereo not given) [METOLAZONE] | Not Active | Not Active | Not Active | Not Active | Not Active | Not Active | Not Active | Not Active | Not Active | Not Active | Not Active | Not Active |  | 
C1CCC(C(CC2CCCCN2)C2CCCCC2)CC1 (stereo not given) [PERHEXILINE] |  | Not Active | Not Active | Not Active | Not Active | Not Active | Not Active | Not Active | Not Active | Not Active | Not Active | Not Active | 1.09 | 0.785
